Reference: publication PMC7767178 (International Journal of Molecular Sciences, 2020)
Values after ≈ are worked out from the molar mass of the structure shown. Values joined by “and” are separate entries in the source; they are usually repeats but may differ in a detail not shown here. Equal entries are not always repeated. Where two headings read alike, the source gives them in different places.

Experiments:
A. veronii ATCC35624 = type: cell-based
A. veronii X-1-06909 = assay: microbe, parasite or virus in culture; type: cell-based
Description: (§1) All experiments were repeated three times.

[1] = test system: Candida albicans CMCC98001; assay: microbe, parasite or virus in culture; type: cell-based
Description: as §1

E. coli CVCC1515 = assay: microbe, parasite or virus in culture; type: cell-based
Description: as §1

E. coli CVCC25922 = assay: microbe, parasite or virus in culture; type: cell-based
Description: as §1

Escherichia coli CVCC195 = assay: microbe, parasite or virus in culture; type: cell-based
Description: as §1

S. enteritidis CVCC3377 = assay: microbe, parasite or virus in culture; type: cell-based
Description: as §1

S. pullorum CVCC1789 = assay: microbe, parasite or virus in culture; type: cell-based
Description: as §1

S. pullorum CVCC1809 = assay: microbe, parasite or virus in culture; type: cell-based
Description: as §1

S. pullorum CVCC533 = assay: microbe, parasite or virus in culture; type: cell-based
Description: as §1

[2] = test system: Staphylococcus aureus ATCC43300; assay: microbe, parasite or virus in culture; type: cell-based
Description: as §1

E. coli CVCCO157 = assay: MIC, microtiter broth dilution; type: cell-based; settings: 37 °C, 16–18 h, three experiments
Description: as §1

[3] = test system: Salmonella typhimurium ATCC14028; type: cell-based; settings: Salmonella typhimurium ATCC14028; broth dilution, 37 °C, 16–18 h, three experiments
A. veronii ACCC61732 [4] = assay: Time-killing curves; type: cell-based; settings: 2× MIC; 1 × 10^5 CFU/mL, colony counting, 0–24 h
Experimental: Time-killing curves were performed as previously described. […] The sample of 100 μL was taken from each flask at 0, 0.5, 1, 2, 4, 6, 8, 10, 20, and 24 h, respectively, and serially diluted for colony counting. PBS and CIP were used as the negative and positive control, respectively.

A. veronii ACCC61732 [5] = assay: Post-antibiotic effect (PAE); type: cell-based; settings: for PAE: 2 h exposure, 1000-fold dilution, 37 °C, triplicate
Experimental: The samples were taken from flasks for counting each hour until bacterial cultures became turbid. The untreated bacteria severed as controls. The PAE was calculated using the following equation: PAE = T − C, where T is the time (h) required for the CFU in the test culture to increase by 10-fold from the count immediately after the drug removal and C is the corresponding time (h) for the control. The experiment was performed in triplicate.

A. veronii ACCC61732 [6] = assay: Resistance development, 30 serial passages; type: cell-based; settings: A. veronii ACCC61732, 30 passages (30 days)
Experimental: The development of bacterial resistance of peptides was performed by the MIC assays. […] GEN, CIP, and PMB were used as controls. […] The MIC values were measured as described above. The serial passaging was repeated for 30 days.

A. veronii ACCC61732 [7] = assay: Outer membrane permeabilization, NPN assay; type: cell-based; settings: NPN fluorescence, 1×–4× MIC
Experimental: The outer membrane permeabilization abilities of peptides were determined using the fluorescent NPN assay. Mid-log phase A. veronii ACCC61732 was collected by centrifugation, washed twice, and then suspended in N-2-hydroxyethylpiperazine-n-2-ethane sulfonic acid (HEPES) buffer (pH 7.4) to an OD600nm = 0.4. […] Fluorescence intensity was recorded until no further increase with a microplate reader (excitation/emission, 328/438 nm).

[8] = test system: A. veronii ACCC61732 in biofilm; type: cell-based; settings: 2 h
Experimental: The mid-log phase A. veronii ACCC61732 cells (1 × 10^8 CFU/mL) were inoculated into in the 96-well plates and cultured for 24 h at 37 °C. The plates were washed twice with PBS. […] PBS was used as the negative control. The plates were treated with ultrasound for 5 min and the viable bacteria were counted on the TSA plates.

A. veronii ACCC61732 [9] = assay: Mouse peritonitis model, bacterial translocation to organs; type: in vivo, ICR mice; settings: 1 μmol/kg, 24 h post-treatment, colony counting
Experimental: Sera and organs (livers, kidneys, spleens, and lungs) were collected from the mice at 24 h post-treatment. The organs were homogenized in sterile PBS to evaluate bacterial translocation by colony counting. The levels of cytokines (TNF-α, IL-1β, IL-6, and IL-10) in sera were detected using the ELISA kits.

A. veronii ACCC61732 [10] = assay: Organ injury in peritonitis model, histology; type: in vivo, mice; settings: peptides 5 μmol/kg, CIP 1 μmol/kg
Experimental: Livers, kidneys, spleens, and lungs were removed from mice at 24 h and five days post treatment to evaluate the organ injury. After washing with PBS, the organs were fixed in 4% paraform-aldehyde for 24 h at 4 °C, dehydrated by a graded series of ethanol (75‒95%), and infiltrated with xylene. The organs were then embedded in paraffin wax, sectioned, and stained with hematoxylin and eosin. Finally, the tissue samples were fixed and observed by the light microscope. The CIP-treated mice served as the positive control and the PBS group served as the negative control.

CC(C)[C@@H]1NC(=O)CNC(=O)[C@H](CC(N)=O)NC(=O)[C@H](CCCNC(=N)N)NC(=O)[C@H](Cc2ccc(O)cc2)NC(=O)[C@H](C(C)C)NC(=O)[C@@H](NC(=O)[C@@H](NC(=O)[C@H](CC(N)=O)NC(=O)[C@H](Cc2c[nH]c3ccccc23)NC(=O)[C@H](C)NC(=O)[C@H](Cc2ccccc2)NC(=O)[C@H](CCCN)N=C(N(C)C)N(C)C)C(C)C)CSSC[C@@H](C(=O)N[C@@H](Cc2c[nH]cn2)C(=O)N[C@@H](CCCNC(=N)N)C(=O)N[C@@H](CCCNC(=N)N)C(=O)N[C@@H](C)C(=O)N[C@@H](CC(N)=O)C(N)=O)NC(=O)[C@H](C(C)C)NC(=O)[C@H](CCCNC(=N)N)NC1=O (stereo in doubt) [Guo-N6NH2]
MIC (A. veronii ATCC35624; A. veronii ATCC35624, broth dilution, 37 °C, 16–18 h, three experiments): 32 µg/mL
MIC (A. veronii ATCC35624; ATCC35624): 12.16 µM
MIC (A. veronii X-1-06909; A. veronii X-1-06909, broth dilution, 37 °C, 16–18 h, three experiments): 16 µg/mL
MIC (A. veronii X-1-06909; read-out: MIC): 6.08 µM
MIC ([1]; CMCC98001, read-out: MIC): >48.6 µM
MIC (E. coli CVCC1515; CVCC1515, read-out: MIC): 0.76 µM
MIC (E. coli CVCC1515; E. coli CVCC1515, broth dilution, 37 °C, 16–18 h, three experiments): 2 µg/mL
MIC (E. coli CVCC25922; E. coli CVCC25922, broth dilution, 37 °C, 16–18 h, three experiments): 4 µg/mL
MIC (Escherichia coli CVCC195; Escherichia coli CVCC195, broth dilution, 37 °C, 16–18 h, three experiments): 4 µg/mL
MIC (S. enteritidis CVCC3377; CVCC3377, read-out: MIC): 0.76 µM
MIC (S. enteritidis CVCC3377; S. enteritidis CVCC3377, broth dilution, 37 °C, 16–18 h, three experiments): 2 µg/mL
MIC (S. pullorum CVCC1789; CVCC1789, read-out: MIC): 3.04 µM
MIC (S. pullorum CVCC1789; S. pullorum CVCC1789, broth dilution, 37 °C, 16–18 h, three experiments): 8 µg/mL
MIC (S. pullorum CVCC1809; S. pullorum CVCC1809, broth dilution, 37 °C, 16–18 h, three experiments): 4 µg/mL
MIC (S. pullorum CVCC533; CVCC533, read-out: MIC): 3.04 µM
MIC (S. pullorum CVCC533; S. pullorum CVCC533, broth dilution, 37 °C, 16–18 h, three experiments): 8 µg/mL
MIC ([2]; ATCC43300, read-out: MIC): 6.08 µM
MIC ([2]; Staphylococcus aureus ATCC43300, broth dilution, 37 °C, 16–18 h, three experiments): 16 µg/mL
MIC (E. coli CVCCO157): 4 µg/mL (≈ 1.52 µM)
MIC [3]: 4 µg/mL (≈ 1.52 µM)
time to completely kill A. veronii ACCC61732 (A. veronii ACCC61732 [4]): 6 h
PAE (A. veronii ACCC61732 [5]; 1× MIC): 0.62 ± 0.01 h
PAEs, range over 1×–4× MIC (A. veronii ACCC61732 [5]; 1× to 4× MIC): 0.62 to 2.07 h
PAE (A. veronii ACCC61732 [5]; 2× MIC): 1.32 ± 0.08 h
PAE (A. veronii ACCC61732 [5]; 4× MIC): 2.07 ± 0.08 h
increase of MIC after 30 serial passages (A. veronii ACCC61732 [6]): three-fold
ability to penetrate the outer membrane (A. veronii ACCC61732 [7]): higher ability to penetrate the outer membrane than N6NH2
bacteria in biofilm killed [8]; 8: 46.26%
bacteria in biofilm killed [8]; 16: 54.31%

O=C(O)c1cn(C2CC2)c2cc(N3CCNCC3)c(F)cc2c1=O [CIP, ciprofloxacin, reference compound]
MIC (A. veronii X-1-06909; Aeromonas veronii, X106909, A. veronii X-1-06909, broth dilution, 37 °C, 16–18 h, three experiments, read-out: MIC): 0.25 µg/mL and 0.75 µM
MIC ([1]; Candida albicans CMCC98001, broth dilution, 37 °C, 16–18 h, three experiments, read-out: MIC): > 386 µM
MIC ([1]; Candida albicans, CMCC98001): > 128 µg/mL
MIC (E. coli CVCC1515; Escherichia coli, CVCC1515): < 0.0625 µg/mL
MIC (E. coli CVCC1515; Escherichia coli, E. coli CVCC1515, broth dilution, 37 °C, 16–18 h, three experiments, read-out: MIC): < 0.19 µM
MIC (E. coli CVCC25922; Escherichia coli, CVCC25922): < 0.0625 µg/mL
MIC (E. coli CVCC25922; Escherichia coli, E. coli CVCC25922, broth dilution, 37 °C, 16–18 h, three experiments, read-out: MIC): < 0.19 µM
MIC (Escherichia coli CVCC195; Escherichia coli CVCC195, broth dilution, 37 °C, 16–18 h, three experiments, read-out: MIC): < 0.19 µM
MIC (Escherichia coli CVCC195; Escherichia coli, CVCC195): < 0.0625 µg/mL
MIC (S. enteritidis CVCC3377; Salmonella enterica, ENTERITIDIS): < 0.0625 µg/mL
MIC (S. enteritidis CVCC3377; Salmonella enterica, S. enteritidis CVCC3377, broth dilution, 37 °C, 16–18 h, three experiments, read-out: MIC): < 0.19 µM
MIC (S. pullorum CVCC1789; Salmonella enterica, PULLORUM): < 0.0625 µg/mL
MIC (S. pullorum CVCC1789; Salmonella enterica, S. pullorum CVCC1789, broth dilution, 37 °C, 16–18 h, three experiments, read-out: MIC): < 0.19 µM
MIC (S. pullorum CVCC1809; Salmonella enterica, PULLORUM): < 0.0625 µg/mL
MIC (S. pullorum CVCC1809; Salmonella enterica, S. pullorum CVCC1809, broth dilution, 37 °C, 16–18 h, three experiments, read-out: MIC): < 0.19 µM
MIC (S. pullorum CVCC533; Salmonella enterica, PULLORUM): < 0.0625 µg/mL
MIC (S. pullorum CVCC533; Salmonella enterica, S. pullorum CVCC533, broth dilution, 37 °C, 16–18 h, three experiments, read-out: MIC): < 0.19 µM
MIC ([2]; Staphylococcus aureus ATCC43300, broth dilution, 37 °C, 16–18 h, three experiments, read-out: MIC): 0.25 µg/mL and 0.75 µM
MIC (E. coli CVCCO157; Escherichia coli, read-out: MIC): < 0.0625 µg/mL and < 0.19 µM
time to completely kill A. veronii ACCC61732 (A. veronii ACCC61732 [4]): started to regrow after 2 h
PAE (A. veronii ACCC61732 [5]; 1× MIC): 0.6 ± 0.01 h
PAE (A. veronii ACCC61732 [5]; 2× MIC): 0.63 ± 0.1 h
PAE (A. veronii ACCC61732 [5]; 4× MIC): 0.67 h and 0.67 ± 0.02 h
increase of MIC after 30 serial passages (A. veronii ACCC61732 [6]): 15 fold
bacteria in biofilm killed ([8]; 8× MIC, 37 °C, colony counting): 47.46%
bacteria in biofilm killed ([8]; 16× MIC, 37 °C, colony counting): 52.32%
reduction of bacteria in kidneys (A. veronii ACCC61732 [9]): 60.14%
reduction of bacteria in livers (A. veronii ACCC61732 [9]): 54.55%
reduction of bacteria in lung (A. veronii ACCC61732 [9]): 62.27%
reduction of bacteria in spleens (A. veronii ACCC61732 [9]): 53.62%
effect on injury of liver, spleen, kidney and lung (A. veronii ACCC61732 [10]): weak therapeutic effect
